The term IC50 denotes the concentration that inhibits the measured activity by half.

One assay concerns the target T1, GSK3β TYR 216 (Homo sapiens, UniProt P49841).
T1 construct: western blotting of Jurkat cells dosed with the compounds; endogenous in cells; host or cells: Jurkat cells
Kind of assay: GSK3β p-TYR Inhibition Assay (western blotting of Jurkat cells). The class given is cell-based. Conditions: western blot, read-out: GSK3b pTYR 216: IC50. As to the method:
Compounds are screened for their ability to inhibit the phosphorylation of tyrosine (TYR) residues through the use of western blotting of Jurkat cells dosed with the compounds. The phosphorylation of the specific TYR residues tested are GSK3α TYR 279 and GSK3β TYR 216.
Jurkat cells are seeded at a density of 2×10^5 cells/well in a 12 well dish in starvation media (RPMI+1% FBS+P/S). Following starvation for 16 hours, the compound is dosed into each well at a final DMSO concentration of 0.3% and cells are incubated o/n at 37° C. 5% CO2. The next day, cells are spun down at 1500 rpm, washed with PBS, and lysed in 100 uL Laemli sample buffer with β-mercaptoethanol.
15 microliters (uL) of cell lysates are loaded onto a 10% tris-glycine gel and run at 120 v for 2 hours or until dye front runs off of the gel. The protein is then transferred onto a PVDF membrane at 100 v for 60 min. PBST (PBS containing 0.1% Tween 20, such as 1 ml Tween per 1 L of PBS) is then made up and used for all washes and antibody incubations. The blot is blocked in 5% nonfat milk PBST for one hour.
The primary antibody (GSK-3α/β pTYR 279/216 at 1:1000 dilution Upstate cat#05-413) is then added in […] PBST overnight at 4° C. with gentle rocking. The blot is then washed in PBST for 5 min. This is then repeated 4 times. […]
In general terms: Immunoblotting shows a protein as a band on a membrane.

Another assay has as its system CRMP2. Kind of assay: CRMP2 phosphorylation assay. The following applies: E16 hippocampal neurons treated for 7 days. The class given is cell-based, rat. Here is the method: GSK-3 phosphorylation regulates CRMP2 which is involved in the control of axon outgrowth and branching (Yoshimura et al. 2005 Cell, Kim et al. 2006 Neuron). Phosphorylation of CRMP2 by GSK-3 reduces CRMP2 binding to microtubules and thereby reduces axon elongation and branching. Conversely, inhibition of GSK-3, especially at levels that selectively affect TYR residue autophosphorylation, enhances these phenotypes. Compounds are tested in E16 rat hippocampal or cortical neurons to determine the ability to increase the level of axonal branching. 1 mg/ml stock of PDL is diluted into 100 μg/ml in DI water. The glass coverslips are coated for at least 1 hour at 37° C. prior to doing the dissection. PDL is aspirated and the plates are rinsed with PBS and air-dried in hood. Cortical or hippocampal lobes are combined with 9 mL of Base media (Neurobasal+Pen/Strep) and put on ice. 1 mL of 10× trypsin solution is added and the mixture is swirled gently. The tissue is then digested via incubation in a 37° C. waterbath for 20 minutes. After 20 minutes, 10 μl/ml DNase (100 μL DNase) is added and the mixture is incubated for another 5 minutes. The cells are spun at 1000 rpm for 1 minute. The enzyme solution is then removed without removing any of the brain fragments sitting on the bottom. […] The cells are counted in a hemacytometer and seeded at 50,000 cells/well in a 12 well plate. […]

Each structure is given as a SMILES string.

T1 sequence (P49841 whole entry): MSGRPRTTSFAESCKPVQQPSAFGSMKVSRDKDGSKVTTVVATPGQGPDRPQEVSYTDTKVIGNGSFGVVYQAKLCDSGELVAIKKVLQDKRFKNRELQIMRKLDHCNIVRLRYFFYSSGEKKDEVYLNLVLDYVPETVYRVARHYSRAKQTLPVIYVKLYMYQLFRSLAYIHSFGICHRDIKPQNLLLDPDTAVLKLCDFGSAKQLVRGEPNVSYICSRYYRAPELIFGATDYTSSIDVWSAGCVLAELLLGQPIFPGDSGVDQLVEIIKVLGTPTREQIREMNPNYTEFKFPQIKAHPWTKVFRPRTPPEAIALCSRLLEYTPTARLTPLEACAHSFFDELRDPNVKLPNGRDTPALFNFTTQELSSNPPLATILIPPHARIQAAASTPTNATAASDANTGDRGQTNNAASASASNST

`Cc1nc(-c2ccccc2Cl)nc(Nc2n[nH]c3ncc(F)cc23)c1C` [Compound I-1, N-(2-(2-chlorophenyl)-5,6-dimethylpyrimidin-4-yl)-5-fluoro-1H-pyrazolo[3,4-b]pyridin-3-amine]: the IC50 at GSK3β TYR 216 came to 3 nM. Moreover, the “Inhibition of GSK-3 phosphorylation of substrate CRMP-2” value in the assay on CRMP2 is reported as “correlated with inhibition of GSK-3 pTYR”.

Source of the values: patent publication US8518953B2, “Aminopyrimidines useful as inhibitors of protein kinases” (Vertex Pharmaceuticals Incorporated, priority 2007, dated 2013).
